Measurements: US10906946B2, “Thrombin inhibitors” (priority 2015, dated 2021)
Peptide text beside a SMILES is read from it.

How the values were obtained:
[1] = system: FeCl3-induced carotid artery thrombosis; test: Ferric chloride-induced carotid artery thrombosis model; type: in vivo, C57BL/6 male mice; conditions: mice, 10% FeCl3
Description: All animal experiments were carried out under protocol 041/12 approved by Institutional Animal Care and Use Committee, National University of Singapore. The ferric chloride induced carotid artery thrombosis model was performed as described previously [Eckly A, et al., J Thromb Haemost 9: 779-89 (2011)] with minor modifications. Typically, C57BL/6 male mice (9-11 weeks old, 24.5-27.5 g) were anesthetized with an intraperitoneal injection of ketamine (75 mg/kg) and medetomidine (1 mg/kg). 100 μL of different doses of avathrin were injected into the mice via tail vein. The right carotid artery was dissected using blunt dissection and a vascular injury was caused applying filter paper of 2 mm×2 mm saturated with FeCl3 on top of the carotid artery. After 3 min, the filter paper was removed and the vessel was washed with sterile normal saline. To determine the time to occlusion, a miniature Doppler flow probe (Transonic Systems Inc., Ithaca, N.Y., USA) was placed around the carotid artery and blood flow was recorded using a Transonic® flow meter from ADInstruments (Dunedin, New Zealand). The maximal time for monitoring the blood flow after injury was 30 min. Mice were euthanized by cervical dislocation immediately after the completion of the experiment and prior to recovery from anesthesia.

clot-bound thrombin = clot-bound thrombin (Homo sapiens, UniProt P00734); test: biochemical
Description: Clot-bound thrombin activity was tested using S2238. Briefly, fibrin clots were prepared by incubating 100 μL of 2 mg/mL fibrinogen (in 50 mM HEPES buffer, pH 7.5, 150 mM NaCl, 10 mg/mL CaCl2) with 100 μL 30 nM thrombin. After 2 h at 37° C., the clots were extensively washed with the same buffer. This washing was repeated after every three hours for a period of 24 hr. […] Chromogenic substrate, S2238 (final concentration 200 μM) was then added and the reaction mixture was incubated for 90 min at 37° C. Aliquots were taken, and substrate hydrolysis was estimated by end point reading at 405 nm, using a Tecan InfinitePro microplate reader. Experiments were performed in quadruplicate and percentage inhibition was plotted.

[2] = system: other serine proteases (trypsin, fIXa, fXIa, fXa, chymotrypsin, tPA, fVIIa, plasmin, APC, kallikrein, urokinase, fXIIa); test: Serine protease selectivity screen (amidolytic assays with chromogenic substrates); type: biochemical
Description: Avathrin was screened for its selectivity against 13 serine proteases including procoagulant, anticoagulant, fibrinolytic and classical serine proteases (thrombin, trypsin, fIXa, fXIa, fXa, chymotrypsin, tPA, fVIIa, plasmin, APC, kallikrien, urokinase and fXIIa). […]
Thrombin amidolytic activity assays for all peptides were performed in 96-wells microtiter plates in 50 mM Tris buffer (pH 7.4) containing 100 mM NaCl and 1 mg/ml bovine serum albumin. […] The rates of formation of p-nitroaniline were followed by measuring the absorbance at 405 nm for 10 min with a Tecan InfinitePro M200 microplate reader from Tecan (Männedorf, Switzerland). […] To measure the inhibitory constants, different concentrations of S2238 were used and the residual velocities were determined using the Morrison's tight binding equation. Inhibition of thrombin fibrinogenolytic activity of peptides were tested by measuring absorbance at 650 nm using a Sunrise microplate reader from Tecan (Männedorf, Switzerland) as described previously [Koh C Y, et al., J Biol Chem 282: 29101-13 (2007)]. […] Effects of avathrin on the amidolytic activities of these serine proteases were determined using respective chromogenic substrates. […]

CC[C@H](C)[C@H](NC(=O)[C@H](CCCCN)NC(=O)[C@@H]1CCCN1C(=O)[C@@H](NC(=O)[C@H](C)NC(=O)[C@@H](NC(=O)[C@H](CCC(N)=O)NC(=O)[C@H](Cc1c[nH]cn1)NC(=O)CNC(=O)CNC(=O)[C@@H](N)CO)[C@@H](C)O)C(C)C)C(=O)N[C@@H](CO)C(=O)N[C@@H](CCCCN)C(=O)N[C@@H](CCC(N)=O)C(=O)NCC(=O)N[C@@H](CC(C)C)C(=O)NCC(=O)NCC(=O)N[C@@H](CC(=O)O)C(=O)N[C@@H](Cc1ccccc1)C(=O)N[C@@H](CCC(=O)O)C(=O)N[C@@H](CCC(=O)O)C(=O)N[C@H](C(=O)N1CCC[C@H]1C(=O)N[C@@H](CO)C(=O)N[C@@H](CC(=O)O)C(=O)N[C@@H](CCC(=O)O)C(=O)N[C@H](C(=O)N[C@H](C(=O)N[C@@H](CCC(=O)O)C(=O)O)[C@@H](C)CC)[C@@H](C)CC)[C@@H](C)CC [Avathrin] (H-SGGHQTAVPKISKQGLGGDFEEIPSDEIIE-OH; N-terminus and C-terminus assumed)
time to occlusion (TTO) ([1]; 3 mg/kg intravenously): 15.03 ± 3.23 min | time to occlusion (TTO) ([1]; 10 mg/kg intravenously): 22.51 ± 4.19 min | IC50 (clot-bound thrombin): 1740 ± 350 nM | inhibition of other proteases ([2]; 100 μM avathrin): < 30% | selectivity preference for thrombin ([2]; thrombin versus other serine proteases): at least four orders of magnitude
